Experimental data taken from ChEMBL document CHEMBL1201862, “PubChem BioAssay data set” (2004).
Activity calls are given as the source filed them. Cut-off read from the data, not from the text of the source, for most assays here: actives have a measured EC50 and inactives only a lower limit.

Tests used:
[1] = Luminescence Cell-Based Dose Confirmation HTS to Identify Inhibitors of Platelet Dense Granule Release. [Related pubchem assays: 1663 (Primary HTS), 1678 (Summary of Project)]; assay type: functional
Cytochrome P450 1A2 = molecular target: T1, Cytochrome P450 1A2 (Homo sapiens, UniProt P05177);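 note: PubChem cytochrome P450 panel assay, CYP1A2 panel member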
T1 sequence (P05177 whole entry): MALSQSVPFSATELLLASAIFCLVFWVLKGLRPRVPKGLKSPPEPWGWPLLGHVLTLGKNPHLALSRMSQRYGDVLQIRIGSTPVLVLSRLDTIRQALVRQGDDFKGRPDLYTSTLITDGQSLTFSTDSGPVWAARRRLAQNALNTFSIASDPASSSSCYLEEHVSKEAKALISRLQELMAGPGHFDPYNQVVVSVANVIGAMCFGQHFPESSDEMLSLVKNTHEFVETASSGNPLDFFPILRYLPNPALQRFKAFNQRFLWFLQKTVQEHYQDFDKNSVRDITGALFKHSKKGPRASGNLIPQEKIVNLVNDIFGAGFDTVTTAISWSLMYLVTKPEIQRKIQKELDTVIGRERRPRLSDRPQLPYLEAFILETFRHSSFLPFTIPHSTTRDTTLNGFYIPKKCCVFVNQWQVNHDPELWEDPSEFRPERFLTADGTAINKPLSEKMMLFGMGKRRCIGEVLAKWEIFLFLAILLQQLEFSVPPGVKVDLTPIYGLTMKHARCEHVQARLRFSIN

[2] = molecular target: Luciferin 4-monooxygenase (Photinus pyralis, UniProt P08659); experiment: firefly luciferase enzyme inhibitors, dose response, biochemical, luminescence (AID 1891)
BJ [3] = experiment: cytotoxicity toward BJ-TERT fibroblasts, dose response, cell-based, RAS-independent, luminescence (AID 1933); assay type: functional; details: Homo sapiens
BJ [4] = experiment: cytotoxicity toward BJ-TERT-LT-ST fibroblasts, dose response, cell-based, RAS-independent, luminescence (AID 1935); assay type: functional; details: Homo sapiens;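 note: BJ fibroblasts immortalized with TERT plus LT and ST oncogenes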
[5] = cytotoxicity toward DRD oncogenic fibroblasts, dose response, cell-based, non-viral oncogenic, luminescence (AID 1934); assay type: functional; details: Homo sapiens
BJ [6] = experiment: cells; assay type: functional, cell-based; details: Homo sapiens
[7] = molecular target: T2, Zinc finger protein mex-5 (Caenorhabditis elegans, UniProt Q9XUB2); experiment: MEX-5/TCR-2 RNA interaction inhibitors, dose response, biochemical, C. elegans, fluorescence polarization (AID 1960)
T2 sequence (Q9XUB2 whole entry): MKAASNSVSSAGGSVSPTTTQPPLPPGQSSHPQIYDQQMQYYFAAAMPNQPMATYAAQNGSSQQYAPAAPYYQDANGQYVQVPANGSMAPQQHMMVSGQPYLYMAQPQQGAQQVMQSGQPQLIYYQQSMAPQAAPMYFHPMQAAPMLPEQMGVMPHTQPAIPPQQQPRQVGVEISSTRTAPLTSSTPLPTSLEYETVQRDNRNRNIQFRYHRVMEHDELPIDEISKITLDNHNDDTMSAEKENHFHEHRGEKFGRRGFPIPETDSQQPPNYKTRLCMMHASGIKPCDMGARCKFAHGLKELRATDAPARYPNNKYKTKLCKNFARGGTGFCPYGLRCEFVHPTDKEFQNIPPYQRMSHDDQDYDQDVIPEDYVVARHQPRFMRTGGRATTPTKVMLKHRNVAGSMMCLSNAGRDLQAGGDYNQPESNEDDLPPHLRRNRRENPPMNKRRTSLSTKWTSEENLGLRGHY

[8] = molecular target: T3, Polyadenylate-binding protein 1 (Homo sapiens, UniProt P11940); experiment: PABP1 MLLE–PAM2 binding inhibitor potency, dose response, biochemical, fluorescence polarization, FITC-PAM2 peptide (AID 602259); assay type: functional; details: read-out: IC50_Mean
[9] = molecular target: T3, Polyadenylate-binding protein 1; experiment: PABP1 MLLE–PAM2 interaction inhibitors, dose response, miRNA deadenylation inhibitor project, biochemical, fluorescence polarization, Cy5-PAM2 peptide, secondary (AID 602260); assay type: functional; details: read-out: IC50_Mean
[10] = molecular target: T4, RNA-binding protein pos-1 (Caenorhabditis elegans, UniProt G5EF15); experiment: inhibitors of POS-1/mex-3 RNA binding, dose response, biochemical, fluorescence polarization (AID 1964);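 note: purified POS-1 fused to maltose binding protein made in E. coli; potency of compounds blocking POS-1 binding to fluorescent RNA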
T4 sequence (G5EF15 whole entry): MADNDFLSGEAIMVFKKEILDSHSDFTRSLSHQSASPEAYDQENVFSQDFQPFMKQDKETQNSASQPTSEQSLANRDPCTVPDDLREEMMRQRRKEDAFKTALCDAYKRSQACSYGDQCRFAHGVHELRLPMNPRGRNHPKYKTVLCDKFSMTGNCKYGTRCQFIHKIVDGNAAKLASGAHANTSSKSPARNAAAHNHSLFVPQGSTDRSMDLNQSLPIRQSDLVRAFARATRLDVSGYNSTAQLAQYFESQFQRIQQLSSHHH

Aminopeptidase N = molecular target: T5, Aminopeptidase N (Plasmodium falciparum FcB1/Columbia, UniProt O96935); experiment: P. falciparum M1AAP inhibitors, biochemical, fluorogenic H-Leu-NHMec substrate, 1536-well (AID 1445); set-up: species or system Plasmodium falciparum 3D7, 3D7
T5 sequence (O96935 whole entry): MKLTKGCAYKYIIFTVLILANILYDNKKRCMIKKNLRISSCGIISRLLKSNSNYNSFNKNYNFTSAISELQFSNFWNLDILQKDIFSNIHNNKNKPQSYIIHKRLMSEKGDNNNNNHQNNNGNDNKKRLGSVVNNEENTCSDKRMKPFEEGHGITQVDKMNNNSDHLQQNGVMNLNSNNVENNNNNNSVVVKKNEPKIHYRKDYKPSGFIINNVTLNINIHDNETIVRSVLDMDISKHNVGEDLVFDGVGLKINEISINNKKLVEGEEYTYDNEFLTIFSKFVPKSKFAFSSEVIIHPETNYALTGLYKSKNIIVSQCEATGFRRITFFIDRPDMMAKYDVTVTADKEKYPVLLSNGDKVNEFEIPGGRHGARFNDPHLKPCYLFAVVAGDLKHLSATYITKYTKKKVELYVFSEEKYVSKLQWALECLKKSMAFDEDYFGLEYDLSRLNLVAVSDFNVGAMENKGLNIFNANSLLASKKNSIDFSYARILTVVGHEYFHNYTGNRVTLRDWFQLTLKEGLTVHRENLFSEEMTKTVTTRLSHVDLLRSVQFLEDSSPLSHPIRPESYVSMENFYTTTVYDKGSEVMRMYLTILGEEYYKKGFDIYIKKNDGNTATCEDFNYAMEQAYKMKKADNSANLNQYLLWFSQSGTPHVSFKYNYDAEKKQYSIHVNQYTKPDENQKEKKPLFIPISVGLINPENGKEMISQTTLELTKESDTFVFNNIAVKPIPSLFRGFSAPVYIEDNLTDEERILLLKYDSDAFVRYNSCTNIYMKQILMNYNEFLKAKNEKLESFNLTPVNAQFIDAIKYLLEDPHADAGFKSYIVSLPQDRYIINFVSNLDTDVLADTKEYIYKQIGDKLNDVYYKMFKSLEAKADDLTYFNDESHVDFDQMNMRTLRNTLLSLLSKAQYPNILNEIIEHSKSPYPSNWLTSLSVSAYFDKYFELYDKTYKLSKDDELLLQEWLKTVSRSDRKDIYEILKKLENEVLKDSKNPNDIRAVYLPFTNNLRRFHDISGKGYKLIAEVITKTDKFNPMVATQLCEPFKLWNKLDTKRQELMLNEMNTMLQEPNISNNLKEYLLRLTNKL

[11] = molecular target: T6, DNA repair and recombination protein RAD54-like (Homo sapiens, UniProt Q92698); experiment: inhibitors of human RAD54 branch migration, confirmation, biochemical, fluorescence, cherry-picked samples, dose series (AID 651657); assay type: functional
T6 sequence (Q92698 whole entry): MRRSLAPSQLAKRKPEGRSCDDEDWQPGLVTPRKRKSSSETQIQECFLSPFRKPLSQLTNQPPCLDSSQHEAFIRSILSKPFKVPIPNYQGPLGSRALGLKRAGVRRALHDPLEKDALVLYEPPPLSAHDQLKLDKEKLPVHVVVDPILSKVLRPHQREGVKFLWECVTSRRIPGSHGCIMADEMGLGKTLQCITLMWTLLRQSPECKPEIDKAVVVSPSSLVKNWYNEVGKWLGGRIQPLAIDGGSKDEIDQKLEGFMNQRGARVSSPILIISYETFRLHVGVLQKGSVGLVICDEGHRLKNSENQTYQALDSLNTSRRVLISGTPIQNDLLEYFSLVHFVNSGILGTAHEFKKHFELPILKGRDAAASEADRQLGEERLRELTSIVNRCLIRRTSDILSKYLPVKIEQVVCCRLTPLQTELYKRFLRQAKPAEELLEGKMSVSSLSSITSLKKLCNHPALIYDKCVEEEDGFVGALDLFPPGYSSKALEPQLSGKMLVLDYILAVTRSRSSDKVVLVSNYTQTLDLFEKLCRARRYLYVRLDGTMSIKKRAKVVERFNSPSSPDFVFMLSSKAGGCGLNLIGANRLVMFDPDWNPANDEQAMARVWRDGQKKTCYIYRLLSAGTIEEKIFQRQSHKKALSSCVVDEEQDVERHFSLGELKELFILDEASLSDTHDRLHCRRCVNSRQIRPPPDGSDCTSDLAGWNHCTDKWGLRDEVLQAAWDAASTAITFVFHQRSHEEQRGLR

INS1 = experiment: beta cell apoptosis inhibitors, cytokine rescue, dose response, luminescence, retest (AID 449756); assay type: functional, cell-based; details: Rattus norvegicus;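 note: cell death triggered by IL-1 beta plus TNF-alpha plus IFN-gamma mixture; protective hits raise ATP signal compared with cytokine alone wells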
[12] = inhibitors of clade B AD8 Env fusion, dose response, cell-based, cherry-pick (AID 652062); assay type: functional;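 note: luciferase signal from cell-cell fusion driven by HIV-1 clade B AD8 Env; potency is for inhibitors of fusion seen as a drop in luminescence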
[13] = Luminescence Cell-Based Dose Response HTS to Identify Inhibitors of 5'UTR Stem-Loop Driven Prion Protein mRNA Translation in H4 Neuroglioblastoma Cells. [Related pubchem assays: 1827 (Project Summary), 1813 (Primary HTS)]; assay type: functional
[14] = inhibitors of SNCA 5'UTR-driven reporter translation, confirmation, H4 neuroglioma cells, luminescence (AID 1988); assay type: functional, cell-based
[15] = inhibitors of firefly luciferase expression or activity, dose response, H4 neuroglioma cells, luminescence (AID 1990); assay type: functional, cell-based
[16] = inhibitors of HIV Env-driven cell fusion, dose response, cherry-pick (AID 652057); assay type: functional, cell-based

Luciferin 4-monooxygenase, sequence (P08659 whole entry): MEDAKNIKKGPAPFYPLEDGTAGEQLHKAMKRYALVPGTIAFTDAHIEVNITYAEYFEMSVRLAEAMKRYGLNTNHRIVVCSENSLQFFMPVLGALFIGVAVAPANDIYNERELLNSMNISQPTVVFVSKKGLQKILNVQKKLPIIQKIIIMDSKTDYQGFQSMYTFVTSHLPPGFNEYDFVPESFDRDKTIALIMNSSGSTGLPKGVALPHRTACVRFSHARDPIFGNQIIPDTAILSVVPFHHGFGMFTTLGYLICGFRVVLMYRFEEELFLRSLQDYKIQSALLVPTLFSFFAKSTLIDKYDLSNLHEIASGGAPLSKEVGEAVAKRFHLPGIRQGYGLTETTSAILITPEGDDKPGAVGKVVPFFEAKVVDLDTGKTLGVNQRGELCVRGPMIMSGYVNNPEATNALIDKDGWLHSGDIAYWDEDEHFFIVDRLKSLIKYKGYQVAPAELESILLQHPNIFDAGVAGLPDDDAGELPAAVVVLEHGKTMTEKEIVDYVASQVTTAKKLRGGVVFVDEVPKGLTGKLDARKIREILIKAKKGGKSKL
T3 sequence (P11940 whole entry): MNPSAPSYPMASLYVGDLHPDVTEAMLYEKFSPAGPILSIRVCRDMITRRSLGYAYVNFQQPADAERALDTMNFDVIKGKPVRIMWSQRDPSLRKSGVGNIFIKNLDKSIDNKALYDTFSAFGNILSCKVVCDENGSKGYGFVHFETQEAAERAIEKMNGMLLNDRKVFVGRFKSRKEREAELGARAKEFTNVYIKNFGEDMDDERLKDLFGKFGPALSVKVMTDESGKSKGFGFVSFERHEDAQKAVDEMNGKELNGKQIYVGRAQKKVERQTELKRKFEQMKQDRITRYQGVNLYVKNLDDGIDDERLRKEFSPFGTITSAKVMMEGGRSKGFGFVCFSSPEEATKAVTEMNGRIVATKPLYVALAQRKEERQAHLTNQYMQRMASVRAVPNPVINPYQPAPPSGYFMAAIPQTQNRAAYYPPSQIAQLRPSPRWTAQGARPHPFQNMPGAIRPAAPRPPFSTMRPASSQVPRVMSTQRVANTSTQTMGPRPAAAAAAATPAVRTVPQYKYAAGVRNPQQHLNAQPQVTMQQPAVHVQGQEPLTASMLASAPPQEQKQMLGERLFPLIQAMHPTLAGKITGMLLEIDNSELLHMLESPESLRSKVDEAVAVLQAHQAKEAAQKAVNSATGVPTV

CCOC(=O)c1c(NC(=O)c2c(C)noc2C)sc2c1CCCCC2
EC50 [1]: > 112 µM (not active)
AC50 (Cytochrome P450 1A2): 5.01 µM (inconclusive)
EC50 [2]: > 112 µM (not active)

CN1CCN(c2ccc([N+](=O)[O-])cc2C(=O)c2ccc(Cl)cc2)CC1
EC50 (BJ [3]): 5.02 µM (active)
EC50 (BJ [4]): 11 µM (inconclusive)
EC50 [5]: 4.22 µM (active)
EC50 (BJ [6]): 33.7 µM (inconclusive)

Cn1c(O)nc2cc(Cl)cnc21
EC50 [7]: 24.8 µM (active)
IC50 [8]: 35.1 µM (inactive)
IC50 [9]: > 66 µM (inactive)
EC50 [10]: 27 µM (active)

CC(=O)Nc1cccc(NC(=O)C2CCCN2C(=O)Nc2cccc(C)c2)c1 (stereo unspecified)
IC50 (Aminopeptidase N): 39.1 µM (active)

Oc1ccccc1-c1nc(NCCN2CCOCC2)c2ccccc2n1
AC50 [11]: 29.5 µM (active)

c1csc(-c2csc3ncnc(NCCCN4CCOCC4)c23)c1
AC50 (INS1): 9.18 µM (active)
AC50 [12]: 4.73 µM (active)

CC(=O)Nc1ccc(Nc2nc(-c3c(C)nc4ccccn34)cs2)cc1
EC50 (BJ [3]): 2.15 µM (active)
EC50 [13]: 0.227 µM (active)
EC50 (BJ [4]): 0.654 µM (inconclusive)
EC50 [14]: 0.13 µM (active)
EC50 [5]: 2.86 µM (inconclusive)
EC50 (BJ [6]): 70.7 µM (inconclusive)
EC50 [15]: > 120 µM (not active)

COCCCn1c(-c2ccc(S(=O)(=O)N3CCOCC3)cc2)cs/c1=N/c1ccccc1
AC50 [12]: 15.3 µM (active)

C[C@H]1CN([C@@H](C)CO)C(=O)c2cc(NS(C)(=O)=O)ccc2O[C@@H]1CN(C)Cc1ccc(Cl)c(Cl)c1
AC50 [16]: 48.9 µM (active)

CNC(=O)c1cc2c(=O)n3cccc(C)c3nc2n(C(C)C)c1=N
IC50 (Aminopeptidase N): 65.6 µM (active)

C[C@H]1CN([C@@H](C)CO)C(=O)c2c(c3ccccc3n2C)-c2ccccc2CO[C@H]1CN(C)C(=O)CCC(F)(F)F
AC50 [12]: 0.411 µM (active)
AC50 [16]: < 0.26 µM (active)

CC1(OC(=O)c2cnc3ccccc3n2)C(=O)C=C2C=C(C3CC3)OC=C2C1=O (stereo unspecified)
EC50 [7]: > 300 µM (not active)
EC50 [10]: > 300 µM (not active)

O=C(Cn1c(SCc2ccccc2)nc2ccccc21)N1CCOCC1
IC50 (Aminopeptidase N): 48.7 µM (active)

Cc1ccc(NC(S)=Nc2ccc3c[nH]nc3c2)cc1
EC50 [1]: > 112 µM (not active)
EC50 [2]: > 112 µM (not active)

CCC(=O)OC1(C)C(=O)C=C2C=C(c3ccc(C#N)cc3)OC=C2C1=O (stereo unspecified)
EC50 [7]: 40.8 µM (active)
EC50 [10]: 85.4 µM (active)

CCN(CC)CC(C)OC(=O)c1ccccc1Cl (stereo unspecified)
EC50 [1]: > 112 µM (not active)
EC50 [2]: > 112 µM (not active)

O=C(O)CSc1c(O)nc2ccc(Cl)cc2c1-c1ccccc1
IC50 (Aminopeptidase N): 41 µM (active)

CC1(C)c2[nH]c3ccccc3c2C[C@@H]2C(=O)N(c3ccc(F)cc3F)C(=O)N21
EC50 [7]: 46.8 µM (active)
EC50 [10]: > 300 µM (not active)

CCN1CCCC1CNC(=O)c1cc2c(-c3cccc(OC)c3)nn(C)c2s1 (stereo unspecified)
AC50 [11]: 56.9 µM (active)

COc1cccc(C(=O)NC2CCN(CC(=O)NCc3ccccc3OC)CC2)c1
IC50 (Aminopeptidase N): 26.9 µM (active)

CCOc1cc(C2C3=C(O)CCCC3=NC3=C2C(=O)CCC3)cc(Cl)c1O (stereo unspecified)
IC50 (Aminopeptidase N): 23.9 µM (active)

CCOC(=O)C1C(c2ccc(OC)c(OC)c2)c2c(n[nH]c2O)CC1(C)O (stereo unspecified)
EC50 [1]: > 112 µM (not active)
EC50 [2]: > 112 µM (not active)

CCOC(=O)CSc1nc2ccc(N)cc2s1
EC50 [1]: > 112 µM (not active)
EC50 [2]: > 112 µM (not active)

Cc1cccc2cc(CN(CC(C)C)S(=O)(=O)c3ccccc3)c(O)nc12
EC50 [1]: > 112 µM (not active)
EC50 [2]: > 112 µM (not active)

C[C@@H]1CN([C@H](C)CO)S(=O)(=O)c2ccc(-c3ccccc3)cc2O[C@@H]1CN(C)Cc1ccccc1
AC50 [16]: 31.8 µM (active)

C=CCn1cc(/C=N/Nc2nc3ccccc3[nH]2)c2ccccc21
EC50 [1]: > 112 µM (not active)
EC50 [2]: 45.1 µM (active)
